Experimental findings from patent US7714146B2, “Azulene-oxindole compounds as multiple-kinase inhibitors and useful as anticancer agents” (Industrial Technology Research Institute, priority 2006, dated 2010) are described below.

Holding throughout (type): biochemical
For assay [1], the target named is T1, human FLT-3 (Arg571-Ser993) (Homo sapiens, UniProt P36888).
T1 construct: human FLT-3 (Arg571-Ser993); GST (N); purchased Cell Signaling Technology; host or cells: baculovirus expression system
T1 sequence (P36888 571-993): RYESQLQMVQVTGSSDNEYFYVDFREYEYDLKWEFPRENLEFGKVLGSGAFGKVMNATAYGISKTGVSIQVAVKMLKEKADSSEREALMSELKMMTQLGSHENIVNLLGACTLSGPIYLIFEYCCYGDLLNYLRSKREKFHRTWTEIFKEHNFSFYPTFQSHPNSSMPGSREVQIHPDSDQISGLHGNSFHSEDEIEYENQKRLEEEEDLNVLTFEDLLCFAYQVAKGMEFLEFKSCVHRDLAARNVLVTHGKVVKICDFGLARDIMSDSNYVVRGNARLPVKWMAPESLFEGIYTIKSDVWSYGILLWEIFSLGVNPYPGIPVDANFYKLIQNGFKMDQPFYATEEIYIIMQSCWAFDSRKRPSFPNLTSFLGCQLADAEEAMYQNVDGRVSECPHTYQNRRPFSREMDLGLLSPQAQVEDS
Description: FLT-3 kinase assay (HTScan kit, DELFIA). Conditions: for inhibition at 0.1 µM: compound at 0.1 μM, read-out: FLT-3 0.1 μM, % of inhibition relative to control; for inhibition at 1 µM: compound at 1 μM, read-out: FLT-3 1 μM, % of inhibition relative to control. The gist of the method:
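GST-tagged human FLT-3 (Arg571-Ser993, baculovirus-expressed) phosphorylated 1.5 μM biotinylated gastrin precursor peptide with 20 μM ATP in HEPES pH 7.5, Mg/Mn buffer and 1% DMSO. After 5 min preincubation, the reaction ran 30 min at room temperature. Phosphorylation was read by DELFIA.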

Assay [2] has as its target T2, human VEGFR-2 (Val789-Val1356) (Homo sapiens, UniProt P35968).
T2 construct: human VEGFR-2 (Val789-Val1356); GST (N); purchased Cell Signaling Technology; host or cells: baculovirus expression system
Description: KDR kinase assay (HTScan VEGFR-2 kit, DELFIA). The settings on record: for inhibition at 0.1 µM: compound at 0.1 μM, read-out: KDR 0.1 μM, % of inhibition relative to control; for inhibition at 1 µM: compound at 1 μM, read-out: KDR 1 μM, % of inhibition relative to control. In outline:
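GST-tagged human VEGFR-2 (Val789-Val1356) from baculovirus, with 1.5 μM biotinylated gastrin precursor peptide and 20 μM ATP in HEPES pH 7.5, Mg/Mn, vanadate, DTT, 1% DMSO. Pre-incubation 5 min, reaction 30 min at room temperature; phosphorylation read by DELFIA.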

In assay [3] the target is T3, human c-KIT (Thr544-Val976) (Homo sapiens, UniProt P10721).
T3 construct: human c-KIT (Thr544-Val976); GST (N); purchased Cell Signaling Technology; host or cells: baculovirus expression system
T3 sequence (P10721 544-976): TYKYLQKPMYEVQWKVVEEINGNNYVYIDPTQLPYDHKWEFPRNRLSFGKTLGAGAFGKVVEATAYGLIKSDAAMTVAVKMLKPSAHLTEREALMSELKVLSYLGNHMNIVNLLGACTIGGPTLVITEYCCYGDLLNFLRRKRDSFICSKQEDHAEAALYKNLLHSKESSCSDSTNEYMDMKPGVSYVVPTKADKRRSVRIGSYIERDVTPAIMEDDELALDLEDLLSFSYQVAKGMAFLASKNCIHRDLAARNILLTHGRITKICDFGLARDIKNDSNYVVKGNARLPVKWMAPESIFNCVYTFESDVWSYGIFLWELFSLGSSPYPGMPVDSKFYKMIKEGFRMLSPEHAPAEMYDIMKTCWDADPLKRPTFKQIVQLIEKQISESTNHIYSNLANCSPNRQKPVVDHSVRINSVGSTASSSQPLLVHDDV
Description: c-KIT kinase assay (HTScan kit, DELFIA). Conditions: for inhibition at 0.1 µM: compound at 0.1 μM, read-out: c-KIT 0.1 μM, % of inhibition relative to control; for inhibition at 1 µM: compound at 1 μM, read-out: c-KIT 1 μM, % of inhibition relative to control. The gist of the method: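 GST-tagged human c-KIT (Thr544-Val976) from baculovirus, with 1.5 μM biotinylated KDR Tyr-996 peptide and 20 μM ATP in HEPES pH 7.5 buffer containing Mg2+/Mn2+ and 1% DMSO. Enzyme and compound pre-incubated 5 min, reaction run 30 min at room temperature; phosphorylation detected by DELFIA.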

Assay [4] concerns the target T4, human PDGFRβ (Gln557-Leu1106) (Homo sapiens, UniProt P09619).
T4 construct: human PDGFRβ (Gln557-Leu1106); GST (N); purchased Cell Signaling Technology; host or cells: baculovirus expression system
Description: PDGFR-beta kinase assay (HTScan kit, DELFIA). Conditions: compound at 10 μM. How it is done:
(§1) Compounds 1-100 were treated for their efficacy in inhibiting activities of FLT-3, c-KIT, KDR/Flk-1, PDGFR-beta, EGFR, and PKC kinases by biochemical DELFIA (Dissociation Enhanced Lanthanide FIA) assays according to the procedure described below. The assays were conducted by, Division of Cell Engineering, Biomedical Engineering Research Laboratories, Industrial Technology Research Institute, Bldg. 53, 195, sec. 4, Chung Hsing Rd. Chutung, Hsinchu, Taiwan 310, R.O.C.
The PDGFR-beta assay was conducted following the protocol described in Protocol for HTScan® PDGFR-beta Kinase Assay Kit (Cell Signaling Technology®). The assay was conducted under the following conditions: PDGFR-beta source: The GST-Kinase fusion protein was produced using a baculovirus expression system with a construct expressing human PDGFRβ (Gln557-Leu1106) (GenBank Accession No. NM_002609) with an amino-terminal GST tag, substrate: This biotinylated peptide contains the residues surrounding Tyr-589 of FLT-3, vehicle: 1% DMSO, pre-incubation time/temperature: 5 minutes at room temperature, incubation time/temperature: 30 minutes at room temperature, incubation buffer: 60 mM HEPES pH 7.5, 5 mM MgCl2, 5 mM MnCl2, 3 μM Na3VO4, 1.25 mM DTT, 20 μM ATP, and quantitative method: DELFIA® Assay.

The target of assay [5] is T5, human EGFR (His672-Ala1210) (Homo sapiens, UniProt P00533).
T5 construct: human EGFR (His672-Ala1210); GST (N); purchased Cell Signaling Technology; host or cells: baculovirus expression system
T5 sequence (P00533 672-1210): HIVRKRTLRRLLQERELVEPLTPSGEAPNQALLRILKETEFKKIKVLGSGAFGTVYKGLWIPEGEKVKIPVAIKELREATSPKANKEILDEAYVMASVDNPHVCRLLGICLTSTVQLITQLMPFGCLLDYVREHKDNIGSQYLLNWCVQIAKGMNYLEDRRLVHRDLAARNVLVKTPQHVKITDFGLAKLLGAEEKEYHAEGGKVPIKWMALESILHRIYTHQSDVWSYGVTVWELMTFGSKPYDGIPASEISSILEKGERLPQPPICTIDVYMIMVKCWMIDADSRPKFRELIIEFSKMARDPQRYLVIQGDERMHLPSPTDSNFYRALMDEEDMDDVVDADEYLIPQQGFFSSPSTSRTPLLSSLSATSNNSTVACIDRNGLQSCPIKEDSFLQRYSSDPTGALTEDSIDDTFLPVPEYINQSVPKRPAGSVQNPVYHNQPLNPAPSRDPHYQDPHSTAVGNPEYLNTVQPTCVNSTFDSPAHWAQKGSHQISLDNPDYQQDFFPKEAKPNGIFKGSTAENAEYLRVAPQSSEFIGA
Description: EGFR kinase assay (HTScan kit, DELFIA). Conditions: for inhibition at 0.1 µM: compound at 0.1 μM, read-out: EGFR 0.1 μM, % of inhibition relative to control; for inhibition at 1 µM: compound at 1 μM, read-out: EGFR 1 μM, % of inhibition relative to control. As for the experimental part:
as §1
The EGFR assay was conducted following the protocol described in Protocol for HTScan® EGFR Kinase Assay Kit (Cell Signaling Technology®). The assay was conducted under the following conditions: EGFR source: The GST-kinase fusion protein was produced using a baculovirus expression system with a construct expressing human EGFR (His672-Ala1210) (GenBank Accession No. NM_005228) with an amino-terminal GST tag, substrate: 1.5 μM This biotinylated peptide contains the residues surrounding Tyr-66 of PTP1B, vehicle: 1% DMSO, pre-incubation time/temperature: 5 minutes at room temperature, incubation time/temperature: 30 minutes at room temperature, incubation buffer: 60 mM HEPES pH 7.5, 5 mM MgCl2, 5 mM MnCl2, 3 μM Na3VO4, 1.25 mM DTT, 20 μM ATP, and quantitative method: DELFIA® Assay.

T2 sequence (P35968 789-1356): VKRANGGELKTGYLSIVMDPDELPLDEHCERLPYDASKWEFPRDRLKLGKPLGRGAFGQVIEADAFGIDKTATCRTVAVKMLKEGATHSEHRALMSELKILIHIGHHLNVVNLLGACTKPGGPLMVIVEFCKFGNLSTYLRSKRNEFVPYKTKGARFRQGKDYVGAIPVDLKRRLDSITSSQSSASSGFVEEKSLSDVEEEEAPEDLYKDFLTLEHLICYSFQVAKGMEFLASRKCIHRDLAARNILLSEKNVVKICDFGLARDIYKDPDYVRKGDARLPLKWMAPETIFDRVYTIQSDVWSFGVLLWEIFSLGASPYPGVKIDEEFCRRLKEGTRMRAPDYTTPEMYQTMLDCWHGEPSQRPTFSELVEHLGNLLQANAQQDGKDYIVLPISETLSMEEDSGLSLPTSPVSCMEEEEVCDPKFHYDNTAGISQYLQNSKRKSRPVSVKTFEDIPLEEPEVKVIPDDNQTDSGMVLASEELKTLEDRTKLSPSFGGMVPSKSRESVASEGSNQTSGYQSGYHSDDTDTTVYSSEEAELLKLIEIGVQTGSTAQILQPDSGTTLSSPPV
T4 sequence (P09619 557-1106): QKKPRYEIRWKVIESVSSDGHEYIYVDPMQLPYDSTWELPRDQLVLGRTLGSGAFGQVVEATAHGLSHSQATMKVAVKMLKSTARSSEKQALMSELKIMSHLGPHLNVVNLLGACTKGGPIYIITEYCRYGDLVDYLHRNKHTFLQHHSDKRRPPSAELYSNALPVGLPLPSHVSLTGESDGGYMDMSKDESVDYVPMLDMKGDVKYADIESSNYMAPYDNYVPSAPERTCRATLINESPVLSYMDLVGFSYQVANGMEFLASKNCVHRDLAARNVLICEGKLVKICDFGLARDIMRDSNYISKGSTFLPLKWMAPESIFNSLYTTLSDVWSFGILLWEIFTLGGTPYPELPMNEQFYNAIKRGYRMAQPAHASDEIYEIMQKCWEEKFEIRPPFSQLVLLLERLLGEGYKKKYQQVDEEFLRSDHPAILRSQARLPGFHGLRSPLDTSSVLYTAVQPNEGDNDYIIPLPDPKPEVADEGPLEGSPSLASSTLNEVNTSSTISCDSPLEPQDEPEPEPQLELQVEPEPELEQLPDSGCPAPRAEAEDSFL

What is called inhibition is the percentage by which the read-out fell short of the control. On to `O=C1Nc2ccc(F)cc2/C1=C/c1ccc2cccccc1-2` [Compound 26, 3-Azulen-1-ylmethylene-5-fluoro-1,3-dihydro-indol-2-one], for which the inhibition at 0.1 µM in assay [1] was determined as 5%; in assay [2], 33.9%; in assay [3], 60.4%. Also, the inhibition at 1 µM worked out at 34.7% in assay [1], 59.1% in assay [2] and 60.4% in assay [3]. For the same compound, the “PDGFR-β 10 μM, % of inhibition relative to control” value in assay [4] is listed as 7.9%.

Turning to `Cc1cc(/C=C2/C(=O)Nc3ccccc32)c2c(C)ccc(C(C)C)cc1-2` [Compound 12, 3-(5-Isopropyl-3,8-dimethyl-azulen-1-ylmethylene)-1,3-dihydro-indol-2-one], in assay [2], the inhibition at 0.1 µM stood at 17.3% and the inhibition at 1 µM was found to be 34.3%. Also, in assay [3], the inhibition at 0.1 µM was determined as 14.7% and the inhibition at 1 µM was 14.7%. In addition, in assay [4], the “PDGFR-β 10 μM, % of inhibition relative to control” value is reported as 7.3%.

As to `O=C1Nc2ccc(Br)cc2/C1=C/c1ccc2cccccc1-2` [Compound 6, 3-Azulen-1-ylmethylene-5-bromo-1,3-dihydro-indol-2-one], the values for the inhibition at 0.1 µM in assay [2] and in assay [3] were 19.6% and 36.6%, respectively. In addition, the inhibition at 1 µM in assay [2] turned out to be 29.7%; in assay [3], 36.6%. Besides, the “PDGFR-β 10 μM, % of inhibition relative to control” value in assay [4] is reported as 35.5%.

As to `Cc1cc(C)c2ccc(/C=C3/C(=O)N(Cc4ccccc4)c4ccccc43)c-2c(C)c1` [Compound 10, 1-Benzyl-3-(4,6,8-trimethyl-azulen-1-ylmethylene)-1,3-dihydro-indol-2-one], in assay [2], the inhibition at 0.1 µM was 22.1% and the inhibition at 1 µM was 38.5%. For the same compound, in assay [3], the inhibition at 0.1 µM was 8.4% and the inhibition at 1 µM was determined as 8.4%. For the same compound, the “PDGFR-β 10 μM, % of inhibition relative to control” value in assay [4] amounted to 18.6%.

Turning to `Cc1ccc2c(c1)/C(=C\c1ccc3cccccc1-3)C(=O)N2` [Compound 47, 3-Azulen-1-ylmethylene-5-methyl-1,3-dihydro-indol-2-one], the inhibition at 0.1 µM in assay [1] is 0.5%; in assay [2] it was 7.8%; in assay [3], 30.7%; in assay [5], 8.3%. For the same compound, the inhibition at 1 µM in assay [1] amounted to 48.6%; in assay [2], 34%; in assay [3] it was 30.7%; in assay [5] it was 14.6%.

Regarding `O=C1Nc2ccc(F)cc2/C1=C/c1cc(Br)c2cccccc1-2` [Compound 45, 3-(3-Bromo-azulen-1-ylmethylene)-5-fluoro-1,3-dihydro-indol-2-one], the inhibition at 0.1 µM in assay [1] was 51.4%; in assay [2], 32.8%; in assay [3], 73.9%; in assay [5], 2.5%. The results for the inhibition at 1 µM in assay [1], in assay [2] and in assay [3] were 69.7%, 41.9% and 73.9%, respectively.

With `O=C1C(=Cc2ccc3cccccc2-3)c2ccccc2N1Cc1ccccc1` [Compound 2, 3-Azulen-1-ylmethylene-1-benzyl-1,3-dihydro-indol-2-one], the inhibition at 1 µM in assay [2] worked out at 10.3%. In assay [3], the inhibition at 0.1 µM came to 24.7% and the inhibition at 1 µM was determined as 24.7%. Moreover, the “PDGFR-β 10 μM, % of inhibition relative to control” value in assay [4] is 3.6%.

In the case of `O=C1/C(=C/c2ccc3cccccc2-3)c2ccccc2N1C(c1ccccc1)c1ccccc1` [Compound 3, 3-Azulen-1-ylmethylene-1-benzhydryl-1,3-dihydro-indol-2-one], the inhibition at 1 µM in assay [1] amounted to 5.1%. In assay [4], the “PDGFR-β 10 μM, % of inhibition relative to control” value came out at 14.4%.

Turning to `Cc1cc(C=C2C(=O)Nc3ccccc32)c2cccccc1-2` [Compound 37, 3-(3-Methyl-azulen-1-ylmethylene)-1,3-dihydro-indol-2-one], the inhibition at 0.1 µM turned out to be 5.9% in assay [1], 53.2% in assay [3] and 2.9% in assay [5]. Also, the inhibition at 1 µM in assay [1] amounted to 61.5%; in assay [2], 27.6%; in assay [3] it was 53.2%; in assay [5], 13.6%.
